Measured values as given in BindingDB's records for doi:10.1021/acschembio.6b00596 (Jagiellonian University, 2016).

Tests used:
[1] = molecular target: T1, E3 ubiquitin-protein ligase Mdm2 [1-118] (Homo sapiens, UniProt Q00987); test: NMR Measurements; settings: pH 7.4; 15 °C
T1 construct: 1-118

[2] = molecular target: T2, E3 ubiquitin-protein ligase Mdm2 [1-118,T47W] (Homo sapiens, UniProt Q00987, T47W); test: Microscale Thermophoresis (MT) Binding Assay; settings: pH 7.4; 25 °C
T2 construct: 1-118
Protocol: Experiments were performed in 50 mM phosphate buffer at pH 7.4 containing 150 mM NaCl, 5 mM DTT, and 5% DMSO.

Row | SMILES | Kd [1] | Kd [2]
1 | O=C1OC(O)(Cc2ccc(Cl)cc2)C(c2ccc(Cl)cc2)=C1c1c[nH]c2cc(Cl)ccc12 (centres undefined) [5-(4-chlorobenzyl)-3-(6-chloro-1H-indol-3-yl)-4-(4-chlorophenyl)-5-hydroxy-1,5-dihydro-2H-furan-2-one (2f)] | 68 µM | 7 µM
2 | O=C1OC(O)(Cc2ccc(F)cc2)C(c2c[nH]c3cc(Cl)ccc23)=C1Cc1ccc(Cl)cc1 (centres undefined) [3-(4-Chlorobenzyl)-4-(6-chloro-1H-indol-3-yl)-5-(4-fluorobenzyl)-5-hydroxy-1,5-dihydro-2H-furan-2-one (2c)] | 18 µM | 28.7 µM
3 | O=C1OC(O)(Cc2ccc(F)cc2)C(Cc2ccc(Cl)cc2)=C1c1c[nH]c2cc(Cl)ccc12 (centres undefined) [4-(4-chlorobenzyl)-3-(6-chloro-1H-indol-3-yl)-5-(4-fluorobenzyl)-5-hydroxy-1,5-dihydro-2H-furan-2-one (2d)] | – | 26 µM
4 | O=C1OC(O)(Cc2ccc(Cl)cc2)C(Cc2ccc(Cl)cc2)=C1c1c[nH]c2cc(Cl)ccc12 (centres undefined) [4,5-di(4-chlorobenzyl)-3-(6-chloro-1H-indol-3-yl)-5-hydroxy-1,5-dihydro-2H-furan-2-one (2b)] | 86 µM | 1.5 µM
5 | O=C1C(c2c[nH]c3cc(Cl)ccc23)=C(c2ccc(Cl)cc2)C(O)N1Cc1ccc(Cl)cc1 (centres undefined) [N-(4-Chlorobenzyl)-3-(6-chloro-1H-indol-3-yl)-4-(4-chlorophenyl)-5-hydroxy-1,5-dihydro-2H-pyrrol-2-on (1h)] | 40 µM | 2.1 µM
6 | O=C1OC(O)(Cc2ccc(Cl)cc2)C(c2c[nH]c3cc(Cl)ccc23)=C1c1ccc(Cl)cc1 (centres undefined) [5-(4-Chlorobenzyl)-4-(6-chloro-1H-indol-3-yl)-3-(4-chlorophenyl)-5-hydroxy-1,5-dihydro-2H-furan-2-one (2e)] | 60 µM | 1.3 µM

Second part, the compound after the results:

Row | Kd [1] | Kd [2] | SMILES
7 | 164 µM | 24.4 µM | O=C1C(c2ccc(Cl)cc2)=C(c2c[nH]c3cc(Cl)ccc23)C(O)N1Cc1ccc(Cl)cc1 (centres undefined) [N-(4-chlorobenzyl)-4-(6-chloro-1H-indol-3-yl)-3-(4-chlorophenyl)-5-hydroxy-1,5-dihydro-2H-pyrrol-2-on (1g)]
8 | 51 µM | 18.7 µM | CN1C(=O)C(c2ccc(Cl)cc2)=C(c2c[nH]c3cc(Cl)ccc23)C1(O)Cc1ccc(Cl)cc1 (centres undefined) [N-Methyl-5-(4-chlorobenzyl)-4-(6-chloro-1H-indol-3-yl)-3-(4-chlorophenyl)-5-hydroxy-1,5-dihydro-2H-pyrrol-2-one (1c)]
9 | 56 µM | – | CN1C(=O)C(c2c[nH]c3cc(Cl)ccc23)=C(Cc2ccc(Cl)cc2)C1(O)Cc1ccc(Cl)cc1 (centres undefined) [N-methyl-4,5-di(4-chlorobenzyl)-3-(6-chloro-1H-indol-3-yl)-5-hydroxy-1,5-dihydro-2H-pyrrol-2-one (1b)]
10 | 365 µM | 40.5 µM | CN1C(=O)C(c2ccc(Cl)cc2)=C(c2cn(C)c3cc(Cl)ccc23)C1(O)Cc1ccc(Cl)cc1 (centres undefined) [N-Methyl-5-(4-chlorobenzyl)-4-(6-chloro-1-methyl-1H-indol-3-yl)-3-(4-chlorophenyl)-5-hydroxy-1,5-dihydro-2H-pyrrol-2-one (1e)]
11 | 246 µM | 30.4 µM | CN1C(=O)C(c2cn(C)c3cc(Cl)ccc23)=C(c2ccc(Cl)cc2)C1(O)Cc1ccc(Cl)cc1 (centres undefined) [N-methyl-5-(4-chlorobenzyl)-3-(6-chloro-1-methyl-1H-indol-3-yl)-4-(4-chlorophenyl)-5-hydroxy-1,5-dihydro-2H-pyrrol-2-one (1f)]
12 | 192 µM | 27.7 µM | CN1C(=O)C(c2c[nH]c3cc(Cl)ccc23)=C(c2ccc(Cl)cc2)C1(O)Cc1ccc(Cl)cc1 (centres undefined) [N-methyl-5-(4-chlorobenzyl)-3-(6-chloro-1H-indol-3-yl)-4-(4-chlorophenyl)-5-hydroxy-1,5-dihydro-2H-pyrrol-2-one (1d)]
13 | < 1 µM | 0.5 µM | CN1C(=O)C(Cc2ccc(Cl)cc2)=C(c2c[nH]c3cc(Cl)ccc23)C1(O)Cc1ccc(Cl)cc1 (centres undefined) [N-Methyl-3,5-di(4-chlorobenzyl)-4-(6-chloro-1H-indol-3-yl)-5-hydroxy-1,5-dihydro-2H-pyrrol-2-one (1a)]
